Measurements published in patent US7776558B2, “Human G protein-coupled receptor and modulators thereof for the treatment of cell death-related disorders” (Arena Pharmaceuticals, Inc., priority 2003, dated 2010).

Columns and labels:
[1] = mice; Mamiya & Ukai 2001; cited from earlier work
FPRL1 = biological target: T1, FPRL1 (Homo sapiens, UniProt P25090); details: Ying et al. 2002; cited from earlier work
T1 sequence (P25090 1-351): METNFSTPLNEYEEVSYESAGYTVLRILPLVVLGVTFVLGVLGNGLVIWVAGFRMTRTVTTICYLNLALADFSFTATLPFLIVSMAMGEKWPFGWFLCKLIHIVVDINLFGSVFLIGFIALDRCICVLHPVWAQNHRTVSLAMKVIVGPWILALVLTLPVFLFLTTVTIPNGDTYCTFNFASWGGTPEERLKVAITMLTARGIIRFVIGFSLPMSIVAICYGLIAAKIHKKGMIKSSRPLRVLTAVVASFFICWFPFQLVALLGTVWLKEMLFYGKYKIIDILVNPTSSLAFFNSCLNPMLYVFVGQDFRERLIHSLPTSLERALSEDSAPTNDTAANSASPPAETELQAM

human FPRL2 = biological target: T2, human FPRL2 (Homo sapiens, UniProt P25089); assay: Melanophore assay (pigment aggregation, Gi coupling); assay type: cell-based; set-up: expressed in transfected cells; details: FPRL2 double tagged (HA/V5), transient; FIG. 4; read-out: EC50 of promoted pigment aggregation in melanophore (Gi coupling)
T2 sequence (P25089 with tags, fused parts or gaps): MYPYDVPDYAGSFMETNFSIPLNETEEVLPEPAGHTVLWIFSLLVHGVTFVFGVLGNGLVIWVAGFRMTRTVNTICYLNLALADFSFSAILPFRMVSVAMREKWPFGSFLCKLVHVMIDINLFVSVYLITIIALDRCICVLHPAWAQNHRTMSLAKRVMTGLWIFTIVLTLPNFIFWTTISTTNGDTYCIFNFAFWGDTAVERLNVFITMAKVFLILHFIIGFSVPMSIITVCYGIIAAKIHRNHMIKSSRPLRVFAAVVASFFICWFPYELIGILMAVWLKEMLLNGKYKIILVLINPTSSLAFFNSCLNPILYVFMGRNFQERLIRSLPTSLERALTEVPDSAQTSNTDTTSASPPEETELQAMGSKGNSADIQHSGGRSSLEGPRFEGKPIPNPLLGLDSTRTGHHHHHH
Description: Melanophores are skin cells found in lower vertebrates. They contain pigmented organelles termed melanosomes. Melanophores are able to redistribute these melanosomes along a microtubule network upon G-protein coupled receptor (GPCR) activation. The result of this pigment movement is an apparent lightening or darkening of the cells. In melanophores, the decreased levels of intracellular cAMP that result from activation of a Gi-coupled receptor cause melanosomes to migrate to the center of the cell, resulting in a dramatic lightening in color. If cAMP levels are then raised, following activation of a Gs-coupled receptor, the melanosomes are re-dispersed and the cells appear dark again. The increased levels of diacylglycerol that result from activation of Gq-coupled receptors can also induce this re-dispersion. In addition, the technology is also suited to the study of certain receptor tyrosine kinases. […] The response can be easily detected using a conventional absorbance microplate reader or a modest video imaging system. […]
Melanophores can be utilized to identify compounds, including natural ligands, against GPCRs. […] The test cells are then contacted with chemical compounds, and it is determined whether the pigment disposition in the cells changed from the initial state of pigment disposition. […]

## CC[C@H](C)[C@H](NC(=O)[C@H](CCC(=O)O)NC(=O)[C@H](CO)NC(=O)[C@@H](NC(=O)[C@H](CC(C)C)NC(=O)[C@H](CC(C)C)NC(=O)[C@H](CC(C)C)NC(=O)[C@H](CC(C)C)NC(=O)[C@H](CS)NC(=O)[C@H](CO)NC(=O)[C@H](Cc1ccccc1)NC(=O)CNC(=O)[C@H](CCCNC(=N)N)NC(=O)[C@@H]1CCCN1C(=O)[C@H](C)NC(=O)[C@@H](N)CCSC)[C@@H](C)O)C(=O)N[C@@H](CC(=O)O)C(=O)N[C@@H](CC(C)C)C(=O)N1CCC[C@H]1C(=O)N[C@H](C(=O)N[C@@H](CCCCN)C(=O)N[C@@H](CCCNC(=N)N)C(=O)N[C@@H](CCCNC(=N)N)C(=O)N[C@@H](C)C(=O)O)C(C)C [Humanin]
[1]
  Learning and memory impairment: improve learning and memory impairment in mice
FPRL1
  Use of FPRL1 as receptor: uses FPRL1 as a functional receptor
Human FPRL2
  EC50: ~239 nM
